# Reference: patent US20050288347A1, “Certain triazole-based compounds, compositions, and uses thereof” (priority 2004, published 2005)
# Entries after “also recorded” stand apart in the source; their conditions may differ.
# Biological target: protein kinase
# Test: HTS ATP-utilizing enzyme assay, off-chip mobility-shift format (Caliper HTS 250)
# Format: biochemical, human
# Details: test compound 10 μM; for Kinase: kinase(s) for which the compound exhibits protein kinase inhibitory activity, active = greater than three-sigma from the mean activity of inactive compounds; for protein kinase against which the compound exhibits inhibitory activity (Table 3): active = activity greater than three-sigma from the mean of the predominately inactive population for that enzyme
# Procedure, shortened: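 Single-point screen at 10 μM compound in HEPES pH 7.5 buffer with Triton X-100 and BSA, 2.5 h at 20–22 °C. Substrate-to-phosphopeptide ratio measured by off-chip microfluidic mobility shift; EDTA wells as 100% and DMSO wells as 0% control, hits called at three-sigma limits.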
SMILES,Kinase,protein kinase against which the compound exhibits inhibitory activity (Table 3)
"COCCn1c(S)nnc1-c1cc2ccccc2cc1O [3-(5-mercapto-4-(2-methoxyethyl)-4H-1,2,4-triazol-3-yl)naphthalen-2-ol]",AURORA-A,
"CCn1c(SCc2ccccc2Cl)nnc1-c1cc(-c2ccccc2)nc2ccccc12 [4-(5-(2-chlorobenzylthio)-4-ethyl-4H-1,2,4-triazol-3-yl)-2-phenylquinoline]",,CHEK2
Cc1ccc(NCc2nnc(S)n2-c2ccccc2)cc1Cl,GSK3-β; also recorded: GSK3-α; also recorded: AURORA-A,
"Clc1ccc(OCc2nnc(SCc3cccnc3)[nH]2)cc1 [3-((5-((4-chlorophenoxy)methyl)-4H-1,2,4-triazol-3-ylthio)methyl)pyridine]",,FLT-3
CCn1c(SCC(=O)NCc2ccco2)nnc1-c1ccccc1,FYN,
O=C(CSc1nnc(-c2cccnc2)n1Cc1ccco1)Nc1nccs1,GSK3-α; also recorded: GSK3-β; also recorded: CDK2-cyclinE,
"CCn1c(SCC(=O)OC)nnc1-c1ccc(O)cc1 [methyl 2-(4-ethyl-5-(4-hydroxyphenyl)-4H-1,2,4-triazol-3-ylthio)acetate]",GSK3-β; also recorded: GSK3-α; also recorded: CHEK1,
"OCCSc1nnc(-c2ccc(Cl)c(Cl)c2)[nH]1 [2-(5-(3,4-dichlorophenyl)-4H-1,2,4-triazol-3-ylthio)ethanol]",,AURORA-A; also recorded: FLT-3; also recorded: CHEK2
"CCOC(=O)CCSc1nnc(-c2cccc(C(F)(F)F)c2)[nH]1 [ethyl 3-(5-(3-(trifluoromethyl)phenyl)-4H-1,2,4-triazol-3-ylthio)propanoate]",,AURORA-A; also recorded: FLT-3; also recorded: GSK3-β
COCCCn1c(C)nnc1SCC(=O)NCc1ccco1,FYN,
"Cc1nnc(SCc2ccccc2)n1Cc1ccccc1 [4-benzyl-3-(benzylthio)-5-methyl-4H-1,2,4-triazole]",,GSK3-β; also recorded: GSK3-α
"Cc1nnc(SCc2nc3ccccc3[nH]2)[nH]1 [2-((5-methyl-4H-1,2,4-triazol-3-ylthio)methyl)-1H-benzo[d]imidazole]",,DYRK2; also recorded: FLT-3; also recorded: AURORA-A
COc1cc(C(=O)CSc2nnc(-c3ccc(O)cc3)n2Cc2ccco2)ccc1NC(C)=O,GSK3-α,

# Further lines, results first:
Kinase,protein kinase against which the compound exhibits inhibitory activity (Table 3),SMILES
CDK2-cyclinE,,O=C(CSc1nnc(CNc2cccc(Cl)c2)n1CCc1ccccc1)NC1CCCCC1
GSK3-β; also recorded: GSK3-α,,"COc1ccc(-c2nnc(S)n2-c2ccc(C)cc2)cc1 [5-(4-methoxyphenyl)-4-p-tolyl-4H-1,2,4-triazole-3-thiol]"
PRAK and CHEK2 and PKA,,COc1ccc(-c2nnc(SCC(=O)Nc3cccc(NC(=O)C4CCCO4)c3)n2-c2ccccc2)cc1 (stereo not drawn)
,AURORA-A,COc1ccccc1-n1c(SCCN2CCCCC2)nnc1-c1cccnc1
AURORA-A and FYN and PDGFRR-α,,CCOC(=O)c1c(NC(=O)CSc2nnc(CNc3ccc(OC)cc3)n2C)sc(C(C)=O)c1C
AURORA-A,,Cc1ccc(NCc2nnc(SCC(=O)Nc3ccc(C)cc3Br)n2-c2ccccc2)cc1
CDK2-cyclinA,,CCn1c(CNc2cccc(Cl)c2)nnc1SCC(=O)O
MSK1,,C=C(C)Cn1c(SCC(=O)O)nnc1-c1ccc(OC)cc1
CHEK2 and SYK,,COc1ccc(C(=O)CSc2nnc(CNc3ccc(C)cc3)n2-c2ccccc2)cc1
MAPKAPK-2,,Cc1ccc(NC(=O)CSc2nnc(CNc3cccc(C(F)(F)F)c3)n2-c2ccccc2)cc1
,FYN,COc1ccc(NCc2nnc(SCCN3CCCCC3)n2-c2ccc(OC)cc2)cc1
SRC and AURORA-A,,O=C(O)CSc1nnc(CNc2cccc(C(F)(F)F)c2)n1Cc1ccco1
DAPK1,,COc1ccc(-n2c(SCC(=O)N3CCC(C)CC3)nnc2-c2ccccc2)cc1
PDGFRR-α and FYN and FLT-3,,COc1ccc(NCc2nnc(SCC(=O)Nc3cccc(C(C)=O)c3)n2-c2ccc(Cl)cc2)cc1
